Reference: patent publication EP4678638A1, “NEW E3 UBIQUITIN LIGASE LIGAND, PROTEIN DEGRADATION AGENT AND USE THEREOF” (priority 2023, dated 2024)

test system: H1975; assay: CCK-8 proliferation, NCI-H1975 (H1975); assay type: cell-based, Human; conditions: Homo sapiens, NCI-H1975; CCK-8; 96 hours; read-out: Inhibitory activity (IC50) on tumor cell proliferation, H1975
Procedure: The tumor cells used herein were cultured in a cell culture medium listed in table A1 at 37°C in an incubator with 5% CO2. Prior to experimentation, all cell lines used were correctly identified by STR profiling, and tested negative for mycoplasma contamination using a mycoplasma detection kit through routine screenings. Table A1. Tumor cells and cell culture medium used in the present disclosure
IC50 values of the compounds of the present disclosure (including the compounds in Table 1, and compounds of examples) were measured using the Meilun Cell Counting Kit-8 kit from Dalian Meilun Biotech Co., Ltd. Assay details are as follows: tumor cells were seeded in a 96-well plate at a density listed in Table A2. After 24h, 100 µL of the inoculated cells were treated with 0.5µL of the compounds of the present disclosure (including the compounds in Tables 1 and 2, and compounds of examples) at 10 different successively decreasing concentrations (starting at the highest concentration of 10µM; 5-fold serial dilutions). After the cells were treated with the compounds of the present disclosure for a period of time, the cell viability detection reagent was added to the culture medium for cell viability assessment according to the instructions provided with the CCK-8 kit. […] The growth inhibition of the compounds of the present disclosure on cells was plotted by Prism Graphpad software, and the IC50 values of the compounds of the present disclosure were calculated therefrom. […] Seeding protocol and treatment time for tumor cells

`O=C1CCC(c2ccc(CN3C4CCC3CN(c3ccc(-c5cc(F)c6c(c5)C(=O)N(C(C(=O)Nc5nccs5)c5ncn7c5CCC7)C6)cc3)C4)cc2)C(=O)N1` (centres unmarked) [GT-06252, 2-(6,7-dihydro-5H-pyrrolo[1,2-c]imidazol-1-yl)-2-(6-(4-(8-(4-(2,6-dioxopiperidin-3-yl)benzyl)-3,8-diazabicyclo[3.2.1]octan-3-yl)phenyl)-4-fluoro-1-oxoisoindolin-2-yl)-N-(thiazol-2-yl)acetamide] and `O=C1CCN(c2ccc(CN3C4CCC3CN(c3ccc(-c5cc(F)c6c(c5)C(=O)N(C(C(=O)Nc5nccs5)c5ncn7c5CCC7)C6)cc3)C4)nc2)C(=O)N1` (centres unmarked) [GT-06255, 2-(6,7-dihydro-5H-pyrrolo[1,2-c]imidazol-1-yl)-2-(6-(4-(8-((5-(2,4-dioxotetrahydropyrimidin-1(2H)-yl)pyridin-2-yl)methyl)-3,8-diazabicyclo[3.2.1]octan-3-yl)phenyl)-4-fluoro-1-oxoisoindolin-2-yl)-N-(thiazol-2-yl)acetamide] fall in the same range of IC50: 1 to 10 nM for the first, 1 to 10 nM for the second.

Compared with `O=C1CCC(c2cnc(F)c(CN3C[C@H]4C[C@@H]3CN4c3ccc(-c4cc(F)c5c(c4)C(=O)N(C(C(=O)Nc4nccs4)c4ncn6c4CCC6)C5)cc3)c2)C(=O)N1` (stereo partly drawn) [GT-07562, 2-(6,7-dihydro-5H-pyrrolo[1,2-c]imidazol-1-yl)-2-(6-(4-((1R,4R)-5-((5-(2,6-dioxopiperidin-3-yl)-2-fluoropyridin-3-yl)methyl)-2,5-diazabicyclo[2.2.1]heptan-2-yl)phenyl)-4-fluoro-1-oxoisoindolin-2-yl)-N-(thiazol-2-yl)acetamide], `O=C1CCC(c2ccc(CN3CCN(c4ccc(-c5cc(F)c6c(c5)C(=O)N(C(C(=O)Nc5nccs5)c5ncn7c5CCC7)C6)cc4)CC3)nc2)C(=O)N1` (centres unmarked) [GT-07381, 2-(6,7-dihydro-5H-pyrrolo[1,2-c]imidazol-1-yl)-2-(6-(4-(4-((5-(2,6-dioxopiperidin-3-yl)pyridin-2-yl)methyl)piperazin-1-yl)phenyl)-4-fluoro-1-oxoisoindolin-2-yl)-N-(thiazol-2-yl)acetamide] is lower in IC50: 10 to 50 nM for the first, 1 to 10 nM for the second.

`CN(Cc1ccc(C2CCC(=O)NC2=O)cn1)C1CCN(c2ccc(-c3cc(F)c4c(c3)C(=O)N(C(C(=O)Nc3nccs3)c3ncn5c3CCC5)C4)cc2)CC1` (centres unmarked) [GT-07385, 2-(6,7-dihydro-5H-pyrrolo[1,2-c]imidazol-1-yl)-2-(6-(4-(4-(((5-(2,6-dioxopiperidin-3-yl)pyridin-2-yl)methyl)(methyl)amino)piperidin-1-yl)phenyl)-4-fluoro-1-oxoisoindolin-2-yl)-N-(thiazol-2-yl)acetamide] and `CN(Cc1ccc(N2CCC(=O)NC2=O)cn1)C1CCN(c2ccc(-c3cc(F)c4c(c3)C(=O)N(C(C(=O)Nc3nccs3)c3ncn5c3CCC5)C4)cc2)CC1` (centres unmarked) [GT-05282, 2-(6,7-dihydro-5H-pyrrolo[1,2-c]imidazol-1-yl)-2-(6-(4-(4-(((5-(2,4-dioxotetrahydropyrimidin-1(2H)-yl)pyridin-2-yl)methyl)(methyl)amino)piperidin-1-yl)phenyl)-4-fluoro-1-oxoisoindolin-2-yl)-N-(thiazol-2-yl)acetamide] fall in the same range of IC50: 1 to 10 nM for the first, 1 to 10 nM for the second.

`CN(Cc1cccnc1NC1CCC(=O)NC1=O)C1CCN(c2ccc(-c3cc(F)c4c(c3)C(=O)N(C(C(=O)Nc3nccs3)c3ncn5c3CCC5)C4)cc2)CC1` (centres unmarked) [GT-07561, 2-(6,7-dihydro-5H-pyrrolo[1,2-c]imidazol-1-yl)-2-(6-(4-(4-(((2-((2,6-dioxopiperidin-3-yl)amino)pyridin-3-yl)methyl)(methyl)amino)piperidin-1-yl)phenyl)-4-fluoro-1-oxoisoindolin-2-yl)-N-(thiazol-2-yl)acetamide] and `O=C1CCN(c2cccc(CN3CCC(N4CCN(c5ccc(-c6cc(F)c7c(c6)C(=O)N(C(C(=O)Nc6nccs6)c6ncn8c6CCC8)C7)cc5)CC4)CC3)c2)C(=O)N1` (centres unmarked) [GT-06328, 2-(6,7-dihydro-5H-pyrrolo[1,2-c]imidazol-1-yl)-2-(6-(4-(4-(1-(3-(2,4-dioxotetrahydropyrimidin-1(2H)-yl)benzyl)piperidin-4-yl)piperazin-1-yl)phenyl)-4-fluoro-1-oxoisoindolin-2-yl)-N-(thiazol-2-yl)acetamide] fall in the same range of IC50: 1 to 10 nM for the first, 1 to 10 nM for the second.
